# ChEMBL document CHEMBL1201862, “PubChem BioAssay data set” (2004)
# The source made the active and inactive calls.
# Experiments:
# [1] = insulin promoter down-regulators in MIN6 cells, imaging, high-content screening, mouse beta cells (AID 1628); format: functional
# [2] = cytotoxicity in MIN6 insulinoma cells, dose response, cytotoxicity control, cell-based, mouse insulinoma (AID 2122); format: functional;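 note: confirmatory high-throughput counterscreen run to flag cytotoxic compounds; mouse MIN-6 beta cells carrying an insulin promoter eGFP reporter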
# [3] = target: T1, Heat shock factor protein 1 (Mus musculus, UniProt P38532); assay: HSF1 potentiators in luciferase reporter cells, confirmation, cell-based, NIH3T3, luminescence, dose retest (AID 435004); format: functional;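 note: stress induced by proteasome inhibitor MG132 added 30 min after compound; luciferase reporter driven by HSF1 response element in NIH3T3 cells; actives raise luminescence as potentiators of the MG132 stress response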
# T1 sequence (P38532 whole entry): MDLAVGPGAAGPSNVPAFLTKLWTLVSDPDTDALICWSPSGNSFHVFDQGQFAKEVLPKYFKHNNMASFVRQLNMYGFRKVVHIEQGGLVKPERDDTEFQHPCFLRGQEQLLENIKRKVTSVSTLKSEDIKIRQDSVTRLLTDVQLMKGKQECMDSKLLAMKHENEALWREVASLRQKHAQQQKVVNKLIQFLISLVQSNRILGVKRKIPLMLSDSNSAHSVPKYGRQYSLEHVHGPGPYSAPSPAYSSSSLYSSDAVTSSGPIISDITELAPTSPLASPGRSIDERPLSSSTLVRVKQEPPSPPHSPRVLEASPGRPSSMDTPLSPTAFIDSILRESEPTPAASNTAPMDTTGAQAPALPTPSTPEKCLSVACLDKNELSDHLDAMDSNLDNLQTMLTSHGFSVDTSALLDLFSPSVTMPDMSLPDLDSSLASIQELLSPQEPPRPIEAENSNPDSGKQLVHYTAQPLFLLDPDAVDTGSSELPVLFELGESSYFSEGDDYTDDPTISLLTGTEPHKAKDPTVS
# [4] = target: T2, Microphthalmia-associated transcription factor (Homo sapiens, UniProt O75030); assay: TRPM1 promoter luciferase signal decrease, dose response, MITF inhibitor project, cell-based, SK-MEL-5, cherry-picked, set 3 (AID 493073); format: functional
# T2 sequence (O75030 whole entry): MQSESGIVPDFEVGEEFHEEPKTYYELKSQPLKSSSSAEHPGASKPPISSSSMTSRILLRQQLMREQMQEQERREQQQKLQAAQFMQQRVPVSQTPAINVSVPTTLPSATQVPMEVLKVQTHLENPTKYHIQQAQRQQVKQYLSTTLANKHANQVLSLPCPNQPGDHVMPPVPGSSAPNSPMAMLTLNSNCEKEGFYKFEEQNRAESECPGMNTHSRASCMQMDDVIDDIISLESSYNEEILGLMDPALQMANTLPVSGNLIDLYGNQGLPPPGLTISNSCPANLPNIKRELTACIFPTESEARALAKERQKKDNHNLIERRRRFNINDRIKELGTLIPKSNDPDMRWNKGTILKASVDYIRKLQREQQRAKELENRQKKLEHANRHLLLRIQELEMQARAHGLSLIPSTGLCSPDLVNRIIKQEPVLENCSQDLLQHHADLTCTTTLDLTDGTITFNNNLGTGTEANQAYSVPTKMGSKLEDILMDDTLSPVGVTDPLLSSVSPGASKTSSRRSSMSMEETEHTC
# [5] = system: A-375; assay: A375 melanoma cell viability reduction, dose response, counter-screen for MITF modulator project, cherry-pick samples, set 2 (AID 540335); format: functional, cell-based; details: Homo sapiens
# [6] = target: Cytochrome P450 2C19 (Homo sapiens, UniProt P33261); assay: Cytochrome panel assay with activity outcomes. Panel member name: p450-cyp2c19 Compounds with AC50 equal or less than 10 uM are considered active; format: functional; details: read-out: AC50
# [7] = target: T3, Cytochrome P450 1A2 (Homo sapiens, UniProt P05177);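 note: PubChem cytochrome P450 panel assay, CYP1A2 panel member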
# T3 sequence (P05177 whole entry): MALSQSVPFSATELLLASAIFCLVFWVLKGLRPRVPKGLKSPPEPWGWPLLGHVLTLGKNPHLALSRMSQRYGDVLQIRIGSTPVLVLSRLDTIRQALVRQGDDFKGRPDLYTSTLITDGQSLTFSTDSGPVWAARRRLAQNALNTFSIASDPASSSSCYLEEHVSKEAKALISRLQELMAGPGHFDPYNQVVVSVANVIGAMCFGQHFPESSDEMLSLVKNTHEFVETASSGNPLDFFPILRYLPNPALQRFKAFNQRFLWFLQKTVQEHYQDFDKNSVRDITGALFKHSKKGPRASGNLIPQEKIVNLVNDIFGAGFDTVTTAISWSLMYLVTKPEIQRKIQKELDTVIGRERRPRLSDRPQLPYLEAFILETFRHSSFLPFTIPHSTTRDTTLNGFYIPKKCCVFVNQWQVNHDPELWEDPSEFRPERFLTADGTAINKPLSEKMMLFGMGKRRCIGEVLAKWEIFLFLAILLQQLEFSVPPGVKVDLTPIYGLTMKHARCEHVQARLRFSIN
# [8] = target: T4, Cytochrome P450 2C9 (Homo sapiens, UniProt P11712)
# [9] = target: Cytochrome P450 3A4 (Homo sapiens, UniProt P08684);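 note: CYP3A4 tested as one member of a cytochrome P450 panel screen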
# [10] = cells; format: functional, cell-based
# [11] = cells; format: functional, cell-based; remark: listed apart in the source
# [12] = system: BJ; assay: cytotoxicity toward BJ-TERT fibroblasts, dose response, cell-based, RAS-independent, luminescence (AID 1933); format: functional; details: Homo sapiens
# [13] = system: BJ; assay: cells; format: functional, cell-based; details: Homo sapiens
# [14] = system: BJ; assay: cytotoxicity toward BJ-TERT-LT-ST fibroblasts, dose response, cell-based, RAS-independent, luminescence (AID 1935); format: functional; details: Homo sapiens;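 note: BJ fibroblasts immortalized with TERT plus LT and ST oncogenes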
# [15] = cytotoxicity toward DRD oncogenic fibroblasts, dose response, cell-based, non-viral oncogenic, luminescence (AID 1934); format: functional; details: Homo sapiens
# [16] = growth suppression of PTEN-null colon cells, dose response, cell-based, HCT116 PTEN knockout (AID 1047); format: functional;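 note: HCT116 colon tumor cells with PTEN knocked out; cells exposed to compound for 60 hours before readout; potency for loss of cell viability measured by luminescence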
# [17] = growth suppression of beta-catenin-knockout colon cells, dose response, cell-based, HCT116, human colon tumor (AID 1045); format: functional;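 note: HCT116 colon tumor cells with beta catenin knocked out; cells exposed to compound for 60 hours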
# [18] = Luminescence Cell-Based Dose Retest to Confirm Inhibitors of Cancer Stem Cells. [Related pubchem assays (depositor defined):AID2717, AID2721]; format: functional; details: Homo sapiens
# [19] = system: INS1; assay: beta cell apoptosis inhibitors, cytokine rescue, dose response, luminescence, retest (AID 449756); format: functional, cell-based; details: Rattus norvegicus;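 note: cell death triggered by IL-1 beta plus TNF-alpha plus IFN-gamma mixture; protective hits raise ATP signal compared with cytokine alone wells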
# [20] = target: Eukaryotic translation initiation factor 4E (Mus musculus, UniProt P63073); assay: eIF4E–eIF4G protein interaction inhibitors, dose response, biochemical, TR-FRET (AID 855); format: functional;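 note: potency for disrupting eIF4E binding to eIF4GI seen as loss of FRET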
# [21] = target: T5, Ubiquitin-conjugating enzyme E2 N (Homo sapiens, UniProt P61088); format: functional;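 note: Dose-response confirmation in a TR-FRET assay detecting UBC13-driven polyubiquitin chain formation, inhibition measured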
# T5 sequence (P61088 whole entry): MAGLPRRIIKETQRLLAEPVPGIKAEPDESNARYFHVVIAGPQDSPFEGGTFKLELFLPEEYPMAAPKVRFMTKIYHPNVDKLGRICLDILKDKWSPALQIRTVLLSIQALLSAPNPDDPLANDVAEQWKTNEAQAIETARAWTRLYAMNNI
# [22] = target: T6, Replicative DNA helicase DnaB (Mycobacterium tuberculosis, UniProt P9WMR3); assay: DnaB intein splicing inhibitors, dose response, biochemical, cell-free fluorescence (AID 449749); format: functional
# T6 sequence (P9WMR3 whole entry): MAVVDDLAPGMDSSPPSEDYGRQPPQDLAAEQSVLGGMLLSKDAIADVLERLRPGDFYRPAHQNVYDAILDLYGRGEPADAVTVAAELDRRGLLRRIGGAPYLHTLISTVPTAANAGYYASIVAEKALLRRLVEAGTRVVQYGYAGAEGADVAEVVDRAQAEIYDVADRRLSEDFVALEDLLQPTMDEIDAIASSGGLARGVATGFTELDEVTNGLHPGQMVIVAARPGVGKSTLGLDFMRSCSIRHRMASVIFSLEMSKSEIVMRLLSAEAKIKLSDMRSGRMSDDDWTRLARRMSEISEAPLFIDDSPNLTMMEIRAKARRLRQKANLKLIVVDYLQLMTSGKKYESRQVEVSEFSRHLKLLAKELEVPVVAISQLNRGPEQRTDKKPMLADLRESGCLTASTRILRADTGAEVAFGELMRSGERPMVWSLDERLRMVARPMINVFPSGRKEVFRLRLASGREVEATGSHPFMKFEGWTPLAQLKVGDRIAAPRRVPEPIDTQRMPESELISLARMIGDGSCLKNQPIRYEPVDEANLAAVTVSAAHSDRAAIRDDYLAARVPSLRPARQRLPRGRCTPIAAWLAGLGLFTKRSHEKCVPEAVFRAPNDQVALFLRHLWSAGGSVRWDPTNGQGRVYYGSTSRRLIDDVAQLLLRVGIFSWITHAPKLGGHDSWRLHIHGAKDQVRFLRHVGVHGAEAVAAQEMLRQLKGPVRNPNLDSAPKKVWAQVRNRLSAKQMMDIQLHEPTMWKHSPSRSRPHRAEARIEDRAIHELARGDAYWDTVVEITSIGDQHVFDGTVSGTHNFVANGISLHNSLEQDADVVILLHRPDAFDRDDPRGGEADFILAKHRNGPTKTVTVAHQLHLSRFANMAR
# [23] = target: T7, Protein RecA (Mycobacterium tuberculosis, UniProt P9WHJ3); assay: Fluorescence Cell-Free Homogeneous Dose Retest to Identify Inhibitors of RecA-Intein Splicing Activity. [Related pubchem assays (depositor defined):AID2097, AID2223, AID489010, AID492950]; format: functional
# T7 sequence (P9WHJ3 whole entry): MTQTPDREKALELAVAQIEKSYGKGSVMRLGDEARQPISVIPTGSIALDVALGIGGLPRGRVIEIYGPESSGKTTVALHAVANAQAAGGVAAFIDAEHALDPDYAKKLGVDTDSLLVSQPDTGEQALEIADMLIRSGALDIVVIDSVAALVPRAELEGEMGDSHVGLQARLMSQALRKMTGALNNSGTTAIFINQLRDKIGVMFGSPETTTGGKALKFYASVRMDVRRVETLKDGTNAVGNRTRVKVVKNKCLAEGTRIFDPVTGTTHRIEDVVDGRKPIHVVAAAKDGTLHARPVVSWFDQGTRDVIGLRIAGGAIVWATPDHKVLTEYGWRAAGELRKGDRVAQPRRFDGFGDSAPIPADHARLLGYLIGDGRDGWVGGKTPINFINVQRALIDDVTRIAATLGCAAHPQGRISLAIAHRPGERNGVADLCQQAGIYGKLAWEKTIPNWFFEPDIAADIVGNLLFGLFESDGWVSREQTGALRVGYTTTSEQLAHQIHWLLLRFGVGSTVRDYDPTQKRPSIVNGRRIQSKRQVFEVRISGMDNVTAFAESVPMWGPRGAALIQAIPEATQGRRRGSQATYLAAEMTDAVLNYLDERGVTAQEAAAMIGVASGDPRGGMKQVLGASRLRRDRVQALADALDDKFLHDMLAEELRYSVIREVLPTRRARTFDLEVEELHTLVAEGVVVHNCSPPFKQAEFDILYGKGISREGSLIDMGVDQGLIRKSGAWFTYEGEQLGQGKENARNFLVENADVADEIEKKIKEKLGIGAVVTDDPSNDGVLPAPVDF
# [24] = A Cell Based Secondary Assay To Explore Cytotoxicity of Compounds that Sensitize Mycobacterium Tuberculosis to Beta-Lactam Antibiotics.; format: functional
# [25] = cytotoxicity in HEK-293T cells, dose response, cytotoxicity control for TCR NF-kB inhibitor project, luminescence, T-cell screen hits (AID 489026); format: functional, cell-based;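 note: cells exposed to compound about 14 hours before the viability readout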
# [26] = system: Escherichia coli; assay: microbe, parasite or virus in culture
# [27] = target: T4, Cytochrome P450 2C9; remark: listed apart in the source
# Sequence of Eukaryotic translation initiation factor 4E (P63073 whole entry): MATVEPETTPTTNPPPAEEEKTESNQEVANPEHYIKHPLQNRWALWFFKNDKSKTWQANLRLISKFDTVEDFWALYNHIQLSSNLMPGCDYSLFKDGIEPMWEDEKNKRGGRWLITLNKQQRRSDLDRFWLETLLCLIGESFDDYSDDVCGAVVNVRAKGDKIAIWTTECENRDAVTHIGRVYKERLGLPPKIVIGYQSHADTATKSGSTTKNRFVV
# T4 sequence (P11712 whole entry): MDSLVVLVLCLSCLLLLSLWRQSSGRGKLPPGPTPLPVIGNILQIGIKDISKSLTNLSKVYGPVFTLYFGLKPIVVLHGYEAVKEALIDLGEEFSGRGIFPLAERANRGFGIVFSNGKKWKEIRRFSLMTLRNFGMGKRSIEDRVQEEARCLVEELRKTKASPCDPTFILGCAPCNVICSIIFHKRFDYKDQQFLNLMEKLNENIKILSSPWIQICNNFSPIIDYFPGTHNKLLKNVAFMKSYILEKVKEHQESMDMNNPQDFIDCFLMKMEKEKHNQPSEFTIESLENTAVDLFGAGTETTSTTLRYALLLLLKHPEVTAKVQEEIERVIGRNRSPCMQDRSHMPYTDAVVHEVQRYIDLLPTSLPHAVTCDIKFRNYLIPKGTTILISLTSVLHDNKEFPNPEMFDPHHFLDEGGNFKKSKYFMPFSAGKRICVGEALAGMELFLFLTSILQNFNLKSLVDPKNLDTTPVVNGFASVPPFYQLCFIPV
# Sequence of Cytochrome P450 3A4 (P08684 whole entry): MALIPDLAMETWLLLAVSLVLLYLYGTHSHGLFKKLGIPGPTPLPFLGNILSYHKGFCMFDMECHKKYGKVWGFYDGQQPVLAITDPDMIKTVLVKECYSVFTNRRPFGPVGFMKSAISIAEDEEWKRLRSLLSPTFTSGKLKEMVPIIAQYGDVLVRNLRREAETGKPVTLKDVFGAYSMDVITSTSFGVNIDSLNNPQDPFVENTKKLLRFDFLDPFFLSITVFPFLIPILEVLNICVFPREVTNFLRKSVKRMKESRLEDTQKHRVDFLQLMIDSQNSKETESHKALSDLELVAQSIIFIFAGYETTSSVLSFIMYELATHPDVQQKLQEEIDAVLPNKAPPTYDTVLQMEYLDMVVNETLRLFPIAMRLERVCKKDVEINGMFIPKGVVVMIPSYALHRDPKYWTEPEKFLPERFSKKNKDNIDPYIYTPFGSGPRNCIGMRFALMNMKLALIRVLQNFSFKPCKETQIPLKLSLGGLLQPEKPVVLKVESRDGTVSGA
# Sequence of Cytochrome P450 2C19 (P33261 whole entry): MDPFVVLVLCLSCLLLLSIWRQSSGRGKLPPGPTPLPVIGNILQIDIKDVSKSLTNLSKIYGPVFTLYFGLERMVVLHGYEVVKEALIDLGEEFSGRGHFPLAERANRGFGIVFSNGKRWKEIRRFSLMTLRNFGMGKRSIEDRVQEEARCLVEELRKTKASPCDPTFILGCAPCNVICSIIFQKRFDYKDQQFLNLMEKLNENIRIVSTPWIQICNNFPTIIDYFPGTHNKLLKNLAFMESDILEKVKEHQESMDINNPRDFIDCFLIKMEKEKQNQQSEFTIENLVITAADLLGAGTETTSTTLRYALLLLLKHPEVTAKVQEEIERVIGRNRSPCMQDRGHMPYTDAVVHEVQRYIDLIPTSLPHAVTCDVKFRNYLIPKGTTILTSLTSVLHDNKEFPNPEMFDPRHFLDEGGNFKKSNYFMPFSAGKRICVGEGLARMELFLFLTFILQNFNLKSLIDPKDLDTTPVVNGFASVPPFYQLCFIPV
compound,measurement,setting,value
Cc1nc2ccccc2n1CC(O)COCC1CC=CCC1 (configuration not stated),IC50,[1],2.27 µM (active)
same,IC50,[2],1.67 µM (active)
same,EC50,[3],> 260 µM (inactive)
COC(=O)C1=C(C)N(Cc2ccccc2)C(NCc2ccccc2)=N[C@H]1c1ccccc1,AC50,[4],18 µM (active)
same,AC50,[5],23.7 µM (active)
COc1ccc(Oc2nc(C)cc(C)c2S(C)(=O)=O)cc1,AC50,[6],25.1 µM (inconclusive)
same,AC50,[7],11.2 µM (inconclusive)
same,AC50,[8],15.8 µM (inconclusive)
same,AC50,[9],inconclusive
O=S(=O)(/C=C/c1ccccc1)N1CCNCC1,EC50,[10],> 350 µM (not active)
same,EC50,[11],> 350 µM (not active)
CCC(CC)c1nnc(NC(=O)COc2ccc3c(C)cc(=O)oc3c2)s1,AC50,[8],7.08 µM (inconclusive)
same,AC50,[9],inconclusive
CCN(CC(=O)Nc1ccccc1-c1ccccc1)Cc1nc(O)c2ccccc2n1,EC50,[12],20.1 µM (active)
same,EC50,[13],67.2 µM (active)
same,EC50,[14],> 75 µM (not active)
same,EC50,[15],17.9 µM (active)
CN(C)CCNC(=O)/C(=C/c1ccc(-c2ccc(Cl)cc2Cl)o1)NC(=O)c1ccccc1,EC50,[16],5.71 µM (active)
same,EC50,[17],4.99 µM (active)
same,AC50,[18],6.63 µM (active)
same,AC50,[4],4.97 µM (active)
same,AC50,[19],7.89 µM (active)
same,AC50,[5],18.9 µM (active)
Cc1ccc(Nc2nc(Oc3ccc(=O)[nH]n3)nc(N(C)C)n2)cc1,IC50,[20],> 64 µM (inactive)
c1ccc(Nc2nc(NCc3ccco3)c3ccccc3n2)cc1,IC50,[1],1.22 µM (active)
same,IC50,[2],1.08 µM (active)
same,IC50,[21],> 20 µM (inactive)
same,AC50,[22],3.66 µM (active)
same,EC50,[23],12 µM (active)
same,AC50,[19],5.14 µM (active)
O=c1[nH]c(=O)n(Cc2ccco2)c2c1C(C(F)(F)F)(C(F)(F)F)NC(CCC1CCCCC1)=N2,AC50,[8],2.82 µM (inconclusive)
same,AC50,[9],inconclusive
CC1(C2CC2)NC(=O)NC1=O (configuration not stated),IC50,[20],> 64 µM (inactive)
O=C(Cc1cccc2ccccc12)N/N=C/c1ccc(OC(=O)/C=C/c2ccco2)cc1,CC50,[24],31.2 µM (active)
O=C(Nc1ccc(CSc2ccccc2)cc1)c1ccc(CN2CCOCC2)cc1,IC50,[25],> 80 µM (inactive)
CCC(CC)C(=O)Nc1nnc(S(=O)(=O)N2CCCCCC2)s1,AC50,[26],29.7 µM (active)
C=CCNc1sc(C(=O)c2ccccc2)c(N)c1C#N,AC50,[9],inconclusive
same,AC50,[27],inconclusive
C/C(=N\O)C(=O)Nc1ccccc1,EC50,[10],> 350 µM (not active)
same,EC50,[11],> 350 µM (not active)
Cc1nc(N2CCCCC2)sc1C(=O)c1cccc([N+](=O)[O-])c1,EC50,[12],> 150 µM (not active)
same,EC50,[13],> 150 µM (not active)
same,EC50,[14],> 150 µM (not active)
same,EC50,[15],> 150 µM (not active)
COc1ccc(-c2noc(CSc3nc(N)c(-c4ccccc4)c(=O)[nH]3)n2)cc1OC,IC50,[20],> 64 µM (inactive)
COc1ccc(C(CC(=O)NCc2ccccc2)Sc2n[nH]c(-c3ccccc3)n2)cc1 (configuration not stated),EC50,[10],> 350 µM (not active)
same,EC50,[11],> 350 µM (not active)
